Columns and labels:
Assay type in all cases: biochemical
Settings in all cases: 1 μM inhibitor concentration
LKB1 = LKB1 (Homo sapiens (Human), UniProt Q15831); assay: LKB1 kinase selectivity assay
Protocol: LKB1 (5-20 mU diluted in 50 mM Tris pH 7.5, 0.1 mM EGTA, 0.1% β-mercaptoethanol, 1 mg/ml BSA) is assayed against […] in a final volume of 25.5 μl containing 50 mM Tris pH 7.5, 0.1 mM EGTA, 0.2 mM […], 10 mM magnesium acetate and 0.02 mM [33P-γ-ATP] (50-1000 cpm/pmole) and incubated for 30 min at room temperature. Assays are stopped by addition of 5 μl of 0.5 M (3%) orthophosphoric acid and then harvested onto P81 Unifilter plates with a wash buffer of 50 mM orthophosphoric acid.

MLK3 = MLK3 (Homo sapiens (Human), UniProt Q16584); assay: MLK3 kinase selectivity assay
Protocol: MLK3 (5-20 mU diluted in 50 mM Tris pH 7.5, 0.1 mM EGTA, 0.1% 0-mercaptoethanol, 1 mg/ml BSA) is assayed against MBP in a final volume of 25.5 μl containing 50 mM Tris pH 7.5, 0.1 mM EGTA, 0.33 mg/ml MBP, 10 mM magnesium acetate and 0.02 mM [33P-γ-ATP] (50-1000 cpm/pmole) and incubated for 30 min at room temperature. Assays are stopped by addition of 5 μl of 0.5 M (3%) orthophosphoric acid and then harvested onto P81 Unifilter plates with a wash buffer of 50 mM orthophosphoric acid.

TAK1 = TAK1 (Homo sapiens (Human), UniProt O43318); assay: TAK1 kinase selectivity assay
Protocol: TAK1 (5-20 mU diluted in 50 mM Tris pH 7.5, 0.1 mM EGTA, 1 mg/ml BSA) is assayed against a substrate peptide ([…]) in a final volume of 25.5 μl containing 50 mM Tris pH 7.5, 0.1 mM EGTA, 0.1% β-Mercaptoethanol, 300 μM substrate peptide, 10 mM magnesium acetate, 0.5 mM MnCl and 0.005 mM [33P-γ-ATP](50-1000 cpm/pmole) and incubated for 30 min at room temperature. Assays are stopped by addition of 5 μl of 0.5 M (3%) orthophosphoric acid and then harvested onto P81 Unifilter plates with a wash buffer of 50 mM orthophosphoric acid.

SRPK1 = SRPK1 (Homo sapiens (Human), UniProt Q96SB4); assay: SRPK1 kinase selectivity assay
Protocol: 5-20 mU of SRPK1 (diluted in 50 mM Tris (pH 7.5), 0.1 mM EGTA, 1 mg/ml BSA, 0.1%, b-Mercaptoethanol) is assayed against substrate peptide ([…]) in a final volume of […] containing 50 mM Tris (pH 7.5), 0.1 mM EGTA, 0.1%, b-Mercaptoethanol, 300 μM substrate peptide, 10 mM magnesium acetate and 0.05 mM [33P-g-ATP](500-1000 cpm/pmole) and incubated for 30 mins at room temperature. Assays are stopped by addition of 5 μl of 0.5M (3%) orthophosphoric acid. Assays are harvested onto P81 Unifilter plates using a wash buffer of 50 mM orthophosphoric acid.

JNK2 = JNK2 (Homo sapiens (Human), UniProt P45984); assay: JNK2 kinase selectivity assay
Protocol: JNK2 1(5-20 mU diluted in 50 mM Tris (pH 7.5), 0.1 mM EGTA, 1 mg/ml BSA, 0.1% b-mercaptoethanol) is assayed against ATF2 (activating transcription factor in a final volume of 25.5 μl in 50 mM Tris pH 7.5, 0.1 mM EGTA, 0.1% b-Mercaptoethanol, ATF2 (3 μM), 10 mM magnesium acetate and 0.02 mM [33P-g-ATP] (500-1000 cpm/pmole) and incubated for 30 min at room temperature. Assays are stopped by addition of 5 μl of 0.5 M (3%) orthophosphoric acid and then harvested onto P81 Unifilter plates with a wash buffer of 50 mM orthophosphoric acid.

YES1 = YES1 (Homo sapiens (Human), UniProt P07947); assay: YES1 kinase selectivity assay
Protocol: YES1 (5-20 mU diluted in 50 mM Tris pH 7.5, 0.1 mM EGTA, 1 mg/ml BSA) is assayed against a substrate peptide (Poly Glut Tyr) in a final volume of 25.5 μl containing 50 mM Tris pH 7.5, 1 mg/ml substrate peptide, 10 mM magnesium acetate and 0.02 mM [33P-g-ATP] (50-1000 cpm/pmole) and incubated for 30 min at room temperature. Assays are stopped by addition of 5 μl of 0.5 M (3%) orthophosphoric acid and then harvested onto P81 Unifilter plates with a wash buffer of 50 mM orthophosphoric acid.

CHK2 = CHK2 (Homo sapiens (Human), UniProt O96017); assay: CHK2 kinase selectivity assay
Protocol: CHK2 (5-20 mU diluted in 20 mM MOPS pH 7.5, 1 mM EDTA, 0.1% b-mercaptoethanol, 0.01% Brij-35, 5% glycerol, 1 mg/ml BSA) is assayed against CHKtide substrate peptide ([…]) in a final volume of 25.5 μl containing 8 mM MOPS pH 7.0, 0.2 mM EDTA, 200 μM CHKtide, 10 mM magnesium acetate and 0.02 mM [33P-g-ATP](50-1000 cpm/pmole) and incubated for 30 min at room temperature Assays are stopped by addition of 5 μl of 0.5 M (3%) orthophosphoric acid and then harvested onto P81 Unifilter plates with a wash buffer of 50 mM orthophosphoric acid.

PKA = PKA (Homo sapiens (Human), UniProt P17612); assay: PKA kinase selectivity assay
Protocol: PKA (5-20 mU diluted in 20 mM MOPS pH 7.5, 1 mM EDTA, 0.01% Brij35, 0.1% b-mercaptoethanol, 1 mg/ml BSA) is assayed against Kemptide (LRRASLG) in a final volume of 25.5 μl containing 8 mM MOPS pH 7.5, 0.2 mM EDTA, 30 μM substrate peptide, 10 mM magnesium acetate and 0.005 mM [33P-g-ATP] (50-1000 cpm/pmole) and incubated for 30 min at room temperature. Assays are stopped by addition of 5 μl of 0.5 M (3%) orthophosphoric acid and then harvested onto P81 Unifilter plates with a wash buffer of 50 mM orthophosphoric acid.

MKK1 = MKK1 (Homo sapiens (Human), UniProt Q02750); assay: MKK1 kinase selectivity assay
Protocol: After incubating at room temperature for 30 min, 5 μl from the first reaction is pipetted into 20 μl of the second reaction mix containing (final concentration) 25 mM Tris pH 7.5, 0.1 mM EGTA, 0.1 mM Na3VO4, 0.66 mg/ml myelin basic protein (MBP), 10 mM magnesium acetate and 0.05 mM [33P-g-ATP] (500-1000 cpm/pmole) and incubated for 30 min at room temperature. Assays are stopped by addition of 5 μl of 0.5 M (3%) orthophosphoric acid and then harvested onto P81 Unifilter plates with a wash buffer of 50 mM orthophosphoric acid.

Chain of JNK2 (P45984 whole entry, species assumed): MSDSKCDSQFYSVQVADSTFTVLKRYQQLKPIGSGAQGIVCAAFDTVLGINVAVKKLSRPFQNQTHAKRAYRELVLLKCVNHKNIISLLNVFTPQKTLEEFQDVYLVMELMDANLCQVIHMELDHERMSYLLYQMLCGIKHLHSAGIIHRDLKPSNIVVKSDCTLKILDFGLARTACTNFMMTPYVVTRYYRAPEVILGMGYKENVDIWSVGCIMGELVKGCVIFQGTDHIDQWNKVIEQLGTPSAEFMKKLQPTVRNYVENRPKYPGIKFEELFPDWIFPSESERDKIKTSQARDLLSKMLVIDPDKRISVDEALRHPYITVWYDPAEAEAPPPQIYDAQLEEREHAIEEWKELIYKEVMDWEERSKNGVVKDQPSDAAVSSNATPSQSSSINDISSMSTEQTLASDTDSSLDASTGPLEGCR
Chain of LKB1 (Q15831 whole entry, species assumed): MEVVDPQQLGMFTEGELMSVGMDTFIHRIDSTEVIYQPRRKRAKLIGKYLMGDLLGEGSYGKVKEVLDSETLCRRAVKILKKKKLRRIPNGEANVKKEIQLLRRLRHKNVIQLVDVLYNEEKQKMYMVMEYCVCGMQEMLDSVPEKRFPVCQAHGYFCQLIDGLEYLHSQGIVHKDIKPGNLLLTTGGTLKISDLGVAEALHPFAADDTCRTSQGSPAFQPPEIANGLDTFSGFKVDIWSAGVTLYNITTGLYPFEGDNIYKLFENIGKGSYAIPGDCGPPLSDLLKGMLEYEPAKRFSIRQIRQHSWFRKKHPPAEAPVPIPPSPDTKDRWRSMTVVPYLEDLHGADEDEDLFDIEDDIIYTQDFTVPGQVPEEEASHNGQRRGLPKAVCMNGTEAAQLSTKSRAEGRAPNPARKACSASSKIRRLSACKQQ
Chain of LKB1 (Q7RTN6 whole entry partner, species assumed): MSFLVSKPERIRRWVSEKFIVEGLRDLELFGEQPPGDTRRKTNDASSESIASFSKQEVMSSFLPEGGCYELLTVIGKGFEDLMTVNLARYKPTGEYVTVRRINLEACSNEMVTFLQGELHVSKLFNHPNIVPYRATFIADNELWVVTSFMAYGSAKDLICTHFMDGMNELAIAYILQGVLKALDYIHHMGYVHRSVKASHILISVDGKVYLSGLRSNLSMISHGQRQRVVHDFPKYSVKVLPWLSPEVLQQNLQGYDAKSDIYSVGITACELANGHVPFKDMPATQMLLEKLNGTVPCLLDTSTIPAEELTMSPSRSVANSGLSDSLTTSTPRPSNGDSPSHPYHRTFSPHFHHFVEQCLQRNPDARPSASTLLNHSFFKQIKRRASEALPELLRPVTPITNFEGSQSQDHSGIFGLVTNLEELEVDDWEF
Chain of LKB1 (Q9Y376 whole entry partner, species assumed): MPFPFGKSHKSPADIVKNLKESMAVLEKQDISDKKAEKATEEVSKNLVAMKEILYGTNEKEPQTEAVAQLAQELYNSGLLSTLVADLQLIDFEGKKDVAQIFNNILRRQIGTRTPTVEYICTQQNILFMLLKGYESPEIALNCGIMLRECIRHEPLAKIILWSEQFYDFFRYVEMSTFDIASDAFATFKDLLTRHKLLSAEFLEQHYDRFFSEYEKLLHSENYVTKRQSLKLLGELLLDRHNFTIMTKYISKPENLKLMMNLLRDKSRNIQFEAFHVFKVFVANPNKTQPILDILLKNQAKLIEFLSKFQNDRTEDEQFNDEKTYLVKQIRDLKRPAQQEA
Chain of CHK2 (O96017 whole entry, species assumed): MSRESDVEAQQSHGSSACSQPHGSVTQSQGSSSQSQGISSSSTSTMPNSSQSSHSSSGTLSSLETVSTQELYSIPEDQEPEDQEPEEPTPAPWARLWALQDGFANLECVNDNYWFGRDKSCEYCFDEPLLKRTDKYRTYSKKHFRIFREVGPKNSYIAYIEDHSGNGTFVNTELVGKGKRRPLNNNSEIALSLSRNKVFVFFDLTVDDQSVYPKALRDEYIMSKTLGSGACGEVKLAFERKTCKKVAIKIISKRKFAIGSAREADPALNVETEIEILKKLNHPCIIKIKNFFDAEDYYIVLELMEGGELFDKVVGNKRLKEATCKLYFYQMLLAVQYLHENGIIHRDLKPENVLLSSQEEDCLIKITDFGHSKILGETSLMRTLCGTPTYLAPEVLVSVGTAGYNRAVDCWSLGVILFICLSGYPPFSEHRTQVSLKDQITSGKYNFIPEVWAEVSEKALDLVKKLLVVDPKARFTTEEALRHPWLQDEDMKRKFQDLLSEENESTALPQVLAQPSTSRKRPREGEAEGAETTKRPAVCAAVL
Chain of YES1 (P07947 whole entry, species assumed): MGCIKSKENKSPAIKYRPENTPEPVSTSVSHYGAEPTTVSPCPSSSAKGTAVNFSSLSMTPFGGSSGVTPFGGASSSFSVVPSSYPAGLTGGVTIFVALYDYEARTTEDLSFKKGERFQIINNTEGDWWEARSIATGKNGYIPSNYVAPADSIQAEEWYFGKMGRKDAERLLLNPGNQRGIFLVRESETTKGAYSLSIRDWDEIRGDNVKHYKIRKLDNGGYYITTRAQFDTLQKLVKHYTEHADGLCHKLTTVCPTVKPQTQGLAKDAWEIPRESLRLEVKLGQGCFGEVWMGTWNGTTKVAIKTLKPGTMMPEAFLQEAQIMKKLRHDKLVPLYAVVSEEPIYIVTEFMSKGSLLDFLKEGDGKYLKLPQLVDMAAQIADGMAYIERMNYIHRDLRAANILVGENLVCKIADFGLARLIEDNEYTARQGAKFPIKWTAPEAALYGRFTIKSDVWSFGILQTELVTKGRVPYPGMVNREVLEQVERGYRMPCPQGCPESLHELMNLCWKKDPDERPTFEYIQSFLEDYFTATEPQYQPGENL
Chain of MKK1 (Q02750 whole entry, species assumed): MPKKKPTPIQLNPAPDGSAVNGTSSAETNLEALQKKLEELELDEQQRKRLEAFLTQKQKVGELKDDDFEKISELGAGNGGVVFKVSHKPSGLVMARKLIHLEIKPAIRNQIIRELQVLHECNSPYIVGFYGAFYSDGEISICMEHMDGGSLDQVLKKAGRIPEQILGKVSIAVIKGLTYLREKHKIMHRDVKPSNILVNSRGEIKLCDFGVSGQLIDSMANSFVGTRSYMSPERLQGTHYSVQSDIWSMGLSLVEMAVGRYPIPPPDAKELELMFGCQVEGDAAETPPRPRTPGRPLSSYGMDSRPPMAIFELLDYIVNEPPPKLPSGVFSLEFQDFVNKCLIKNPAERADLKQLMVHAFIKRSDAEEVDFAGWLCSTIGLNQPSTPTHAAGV
Chain of MLK3 (Q16584 whole entry, species assumed): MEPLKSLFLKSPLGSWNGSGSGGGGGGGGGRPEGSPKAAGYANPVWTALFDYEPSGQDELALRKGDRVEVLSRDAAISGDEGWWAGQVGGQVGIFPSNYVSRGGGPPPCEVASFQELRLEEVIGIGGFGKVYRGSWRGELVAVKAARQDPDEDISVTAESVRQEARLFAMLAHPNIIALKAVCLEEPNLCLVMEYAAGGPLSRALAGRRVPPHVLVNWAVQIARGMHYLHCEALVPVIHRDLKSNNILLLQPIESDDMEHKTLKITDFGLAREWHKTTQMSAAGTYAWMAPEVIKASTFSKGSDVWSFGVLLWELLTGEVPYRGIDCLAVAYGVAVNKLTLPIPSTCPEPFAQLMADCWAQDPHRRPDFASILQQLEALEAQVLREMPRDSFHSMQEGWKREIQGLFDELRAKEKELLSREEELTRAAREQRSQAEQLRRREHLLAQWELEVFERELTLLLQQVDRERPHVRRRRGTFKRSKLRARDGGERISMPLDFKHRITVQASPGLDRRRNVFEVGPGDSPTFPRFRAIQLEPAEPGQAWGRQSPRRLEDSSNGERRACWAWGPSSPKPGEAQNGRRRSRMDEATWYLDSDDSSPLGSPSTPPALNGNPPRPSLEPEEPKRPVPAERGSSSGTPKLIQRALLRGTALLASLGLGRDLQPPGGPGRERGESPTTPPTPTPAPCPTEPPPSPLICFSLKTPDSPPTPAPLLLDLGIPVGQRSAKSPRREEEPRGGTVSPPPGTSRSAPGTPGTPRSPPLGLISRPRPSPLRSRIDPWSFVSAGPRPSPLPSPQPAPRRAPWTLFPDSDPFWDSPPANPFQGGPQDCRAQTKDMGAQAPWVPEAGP
Chain of SRPK1 (Q96SB4 whole entry, species assumed): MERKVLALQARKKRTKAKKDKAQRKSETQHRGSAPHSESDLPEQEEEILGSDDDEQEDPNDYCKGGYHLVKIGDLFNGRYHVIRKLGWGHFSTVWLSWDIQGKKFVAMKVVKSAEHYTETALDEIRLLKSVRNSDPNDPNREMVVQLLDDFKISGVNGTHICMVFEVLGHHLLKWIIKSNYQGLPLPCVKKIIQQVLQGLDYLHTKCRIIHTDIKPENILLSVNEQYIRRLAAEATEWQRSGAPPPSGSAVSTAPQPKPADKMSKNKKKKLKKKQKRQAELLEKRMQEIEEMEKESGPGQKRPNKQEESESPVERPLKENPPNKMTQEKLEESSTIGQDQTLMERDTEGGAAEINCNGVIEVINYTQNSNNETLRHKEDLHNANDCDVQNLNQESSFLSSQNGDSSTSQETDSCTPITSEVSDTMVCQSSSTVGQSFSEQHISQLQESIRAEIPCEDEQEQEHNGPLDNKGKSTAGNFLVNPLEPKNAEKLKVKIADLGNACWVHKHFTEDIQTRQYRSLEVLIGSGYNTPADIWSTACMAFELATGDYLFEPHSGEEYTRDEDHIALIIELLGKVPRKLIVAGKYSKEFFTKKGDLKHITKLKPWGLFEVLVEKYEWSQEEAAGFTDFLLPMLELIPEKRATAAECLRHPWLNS
Chain of TAK1 (O43318 1-303): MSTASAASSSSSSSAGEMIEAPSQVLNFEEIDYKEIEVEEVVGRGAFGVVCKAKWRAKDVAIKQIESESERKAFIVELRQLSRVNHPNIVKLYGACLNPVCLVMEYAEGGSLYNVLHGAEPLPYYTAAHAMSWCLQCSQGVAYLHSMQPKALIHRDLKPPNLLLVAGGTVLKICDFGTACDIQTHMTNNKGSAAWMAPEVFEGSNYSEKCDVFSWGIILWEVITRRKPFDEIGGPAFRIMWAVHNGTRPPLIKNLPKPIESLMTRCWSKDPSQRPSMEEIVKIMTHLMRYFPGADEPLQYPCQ

| Structure (SMILES) | percentage inhibition of LKB1 (LKB1) [percentage] | percentage inhibition of MLK3 (MLK3) [percentage] | percentage inhibition of TAK1 (TAK1) [percentage] | percentage inhibition of SRPK1 (SRPK1) [percentage] | percentage inhibition of JNK2 (JNK2) [percentage] | percentage inhibition of YES1 (YES1) [percentage] | percentage inhibition of CHK2 (CHK2) [percentage] | percentage inhibition of PKA (PKA) [percentage] | percentage inhibition of MKK1 (MKK1) [percentage] |
| --- | --- | --- | --- | --- | --- | --- | --- | --- | --- |
| c1cc2[nH]nc3c2c(n1)N(C1CCOCC1)CCC3 [Example 29, 6-(tetrahydro-2H-pyran-4-yl)-6,7,8,9-tetrahydro-2H-1,2,5,6-tetraazabenzo[cd]azulene] | 6 | 8 | 65 | 0 | 0 | 0 | 2 | 0 | 21 |
| c1cc2[nH]nc3c2c(n1)N(C1CCC1)CCC3 [Example 22, 6-cyclobutyl-6,7,8,9-tetrahydro-2H-1,2,5,6-tetraazabenzo[cd]azulene] | 20 | 7 | 64 | 0 | 1 | 0 | 11 | 0 | 15 |
| CC(C)n1ncc2c1CN(C1CCN(C)CC1)c1nccc3[nH]nc-2c13 [Example 68] | 0 | 4 | 36 | 0 | 37 | 5 | 53 | 0 | 31 |
| c1cc2[nH]nc3c2c(n1)N(C1CCCC1)CCC3 [Example 23, 6-cyclopentyl-6,7,8,9-tetrahydro-2H-1,2,5,6-tetraazabenzo[cd]azulene] | 16 | 4 | 49 | 0 | 0 | 0 | 0 | 0 | 0 |
| CN1CCC(N2Cc3ccccc3-c3n[nH]c4ccnc2c34)CC1 [Example 55] | 0 | 6 | 64 | 0 | 41 | 16 | 80 | 0 | 65 |

From patent US10918645B2 (LIFEARC, priority 2016, dated 2021)
